The values below come from publication PMC7443477 (British Journal of Pharmacology, 2020).

A value given as a limit tells only on which side of the number the result lay.

Usually EC50 stands for the concentration needed to bring the measured effect to its halfway point. One may read the IC50 as the point on the concentration scale where inhibition reaches its midpoint.

Assay type in all cases: cell-based
In assay [1] the target is LPA1 receptor (native, systemic sclerosis dermal fibroblasts) (Homo sapiens, UniProt Q92633). The assay is described as follows: FLIPR calcium flux, primary SSc dermal fibroblasts. The settings on record: agonist; 0.3% fatty acid-free human serum albumin; Gi/Go coupled.
Chain of LPA1 receptor (native, systemic sclerosis dermal fibroblasts) (Q92633 whole entry): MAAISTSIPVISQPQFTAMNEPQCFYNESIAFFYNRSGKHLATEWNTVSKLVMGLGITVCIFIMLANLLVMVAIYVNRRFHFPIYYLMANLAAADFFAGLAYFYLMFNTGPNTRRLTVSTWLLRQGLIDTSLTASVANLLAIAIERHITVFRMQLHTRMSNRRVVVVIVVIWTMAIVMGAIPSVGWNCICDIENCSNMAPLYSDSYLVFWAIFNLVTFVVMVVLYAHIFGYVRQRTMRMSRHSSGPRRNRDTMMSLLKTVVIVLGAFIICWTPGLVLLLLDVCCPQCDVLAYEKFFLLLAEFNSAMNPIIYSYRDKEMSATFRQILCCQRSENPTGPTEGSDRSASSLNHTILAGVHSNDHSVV
The target in a further assay is T1, LPA3 receptor (Homo sapiens, UniProt Q9UBY5).
T1 sequence (Q9UBY5 1-353): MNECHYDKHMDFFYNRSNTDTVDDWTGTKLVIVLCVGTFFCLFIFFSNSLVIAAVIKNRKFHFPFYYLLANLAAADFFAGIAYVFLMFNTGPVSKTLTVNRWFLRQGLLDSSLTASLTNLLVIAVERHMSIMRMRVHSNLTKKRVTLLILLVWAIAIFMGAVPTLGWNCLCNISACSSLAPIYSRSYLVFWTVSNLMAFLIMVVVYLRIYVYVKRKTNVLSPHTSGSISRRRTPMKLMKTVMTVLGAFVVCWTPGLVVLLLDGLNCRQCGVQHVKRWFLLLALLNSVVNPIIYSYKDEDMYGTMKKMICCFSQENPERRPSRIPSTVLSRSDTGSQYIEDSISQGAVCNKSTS
The assay is described as follows: FLIPR calcium flux, CHO cells. In general terms: Calcium flux is commonly read through the fluorescence of an indicator in the cells.

In the next assay the target is LPA5 receptor (Homo sapiens, UniProt Q9H1C0). The assay is described as follows: FLIPR calcium flux, CHO cells.
Chain of LPA5 receptor (Q9H1C0 whole entry): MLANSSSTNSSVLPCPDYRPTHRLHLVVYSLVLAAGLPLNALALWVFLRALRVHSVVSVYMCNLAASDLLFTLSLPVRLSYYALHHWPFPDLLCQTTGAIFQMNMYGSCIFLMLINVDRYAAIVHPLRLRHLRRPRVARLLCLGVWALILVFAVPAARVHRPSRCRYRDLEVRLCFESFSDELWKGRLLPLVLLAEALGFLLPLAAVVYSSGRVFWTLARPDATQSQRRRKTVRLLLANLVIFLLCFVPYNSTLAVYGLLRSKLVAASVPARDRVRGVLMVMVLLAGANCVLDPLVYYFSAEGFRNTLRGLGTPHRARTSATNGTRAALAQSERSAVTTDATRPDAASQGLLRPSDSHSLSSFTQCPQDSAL
Another assay deals with LPA2 receptor (Homo sapiens, UniProt Q9HBW0). Briefly: FLIPR calcium flux, CHO cells.
Chain of LPA2 receptor (Q9HBW0 whole entry): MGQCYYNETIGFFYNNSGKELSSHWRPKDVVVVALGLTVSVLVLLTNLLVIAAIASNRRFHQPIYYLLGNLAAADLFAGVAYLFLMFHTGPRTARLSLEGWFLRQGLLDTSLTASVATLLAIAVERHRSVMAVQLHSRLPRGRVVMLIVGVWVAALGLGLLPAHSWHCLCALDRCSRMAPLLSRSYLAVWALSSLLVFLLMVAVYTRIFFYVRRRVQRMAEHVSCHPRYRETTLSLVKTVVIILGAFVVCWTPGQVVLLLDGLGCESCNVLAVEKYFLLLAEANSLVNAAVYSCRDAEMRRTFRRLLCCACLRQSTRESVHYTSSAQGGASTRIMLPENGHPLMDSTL

Consider `CCCCCCCC/C=C\CCCCCCCC(=O)OC[C@@H](O)COP(=O)(O)O` [LPA 18:1], for which, in assay [1], the EC50 was 0.15 ± 0.05 µM.

With `COc1ccc(C(=O)NC2(C(=O)O)Cc3ccccc3C2)cc1OCCc1cccc(C)c1` [SAR100842, 2‐(4‐methoxy‐3‐(2‐m‐tolyl‐ethoxy)‐benzoylamino)‐indan‐2‐carboxylic acid], the IC50 at LPA3 receptor, on LPA5 receptor and at LPA2 receptor was greater than 10 µM each time.
